From PubChem BioAssay AID2305 (GlaxoSmithKline (GSK), 2010)
pIC50: −log10 of the molar value. Where “and” joins values, the source holds several entries; their conditions need not be identical. Equal entries are not always repeated.

test system: P. falciparum 3D7 growth, pLDH absorbance; test: blood-stage malaria parasite growth potency – strain 3D7, dose response (AID 2305)

Structure (SMILES)	pIC50
CCc1c(C)c(C#N)c2nc3ccccc3n2c1NCc1ccco1	6.15
CCCc1cc(OC)c(CC2c3cc(O)c(C)cc3CCN2C)cc1OC (centres undefined)	6.15
C[C@@H](CC1CCCCC1)NCc1ccccc1O	6.03
Cc1cc(-c2ncc[nH]2)ccc1-c1ccc(C(=O)N2CCc3cc4c(cc32)C2(CCN(C)CC2)CO4)cc1	6.10
COCC(=O)N(Cc1ccccc1-c1ccc(CNCCc2ccccc2)cc1)C1CCN(Cc2ccccc2)CC1	6.05
Cn1nc(-c2ccc(S(=O)(=O)NC3CCC(CN4CCC(c5c[nH]c6ccccc56)CC4)CC3)s2)cc1C(F)(F)F (centres undefined)	6.08 and 6.09
O=S(=O)(c1cc(Cl)ccc1Cl)N1CCCCC(c2ccc(C(F)(F)F)cc2)=N1	6.00
CCc1cc(NC(=O)Nc2ccnc3ccccc23)ccc1OC	6.85
COc1cc(C(=O)N2CCOC(CCN3CCC[C@H]3C(=O)Nc3ccccc3)(c3ccc(Cl)c(Cl)c3)C2)cc(OC)c1OC (some centres undefined)	6.14
O=C(/C=C/c1ccc(Cl)c(Cl)c1)NCC1CCC(CN2CCC(c3c[nH]c4ccccc34)CC2)CC1 (centres undefined)	6.44
CCCCSc1ccc(CNCCCCCCNCc2ccc(SCCCC)c3ccccc23)c2ccccc12	6.20
c1ccc(Oc2ccc(Nc3ccnc4cc(-c5ccc(CNCCN6CCOCC6)o5)ccc34)cc2)cc1	6.36
COc1ccc2nc(C)cc(NCc3ccc4ccccc4c3)c2c1	6.33
O=C(/C=C/c1ccccc1O)N1CCC(CCN2CCC(c3c[nH]c4ccccc34)CC2)CC1	5.87
Cc1cc(N(CCO)CCCN2CCCCC2)nc(Nc2ccc(Cl)cc2)n1	6.26
Cc1cccn2c(=O)c3cc(C(=O)NC4CCCCC4)c(=N)n(CCCn4ccnc4)c3nc12	6.12
CC(Cc1ccc(OCc2ccc(CCN(C)C)cc2)cc1)NCCc1cccc(Cl)c1 (centres undefined)	6.11
COc1ccc(Nc2nc(NCc3ccc(-n4ccnc4)cc3)cc(-c3ccc(OC)cc3)n2)cc1	6.08
Cc1sc(NC(=O)c2ccc([N+](=O)[O-])cc2Cl)c(C(N)=O)c1C	6.03
COc1cc(Nc2nccc(N3CCC(NS(=O)(=O)c4ccc(NC(C)=O)cc4)CC3)n2)cc(OC)c1OC	6.01

Structure (SMILES)	pIC50
Cc1cccc2[nH]c(-c3cccc(-c4cccc(C(=O)NCCN5CCCC5)c4)c3)nc12	6.08
CC[C@H]1CN2CC[C@H]1C[C@H]2[C@H](O)c1ccnc2ccc(O)cc12	6.19
Cn1nc2ccc3ccccc3c2nc1=N	6.11
CC(C)(C)c1ccc(-c2cc(C(=O)N[C@@H](CO)C(=O)O)on2)cc1 (tested in a mixture with another compound)	6.01
COc1ccc(OC)c2c1C[C@@H]1NC[C@H]2c2c(OC)ccc(OC)c21	6.01
O=[N+]([O-])c1ccc(C=NO)nc1	6.06
O=C(Nc1ccccc1OC(F)(F)F)NC1CCC(CN2CCC(c3c[nH]c4ccccc34)CC2)CC1 (centres undefined)	6.43 and 6.10
CC(CN1CCN(CC(c2ccc(F)cc2)N2CCN(C)CC2)CC1)C(=O)c1ccc(O)cc1 (centres undefined)	6.17
O=c1ccc(CNc2nc(NCCc3ccccc3)nc3ccc(Cl)cc23)c[nH]1	6.11
NC1=NC2(CCCCC2)N(OCCCCCCc2ccccc2)C(N)=N1	6.46
O=C(NC1CCN(Cc2ccccc2)CC1)c1cccc(Nc2nc(-c3ccccc3)cs2)c1	5.99
O=C(NC1CCN(Cc2ccc(F)cc2)CC1)c1ccc(-c2cccc(C(F)(F)F)c2)s1	5.87
NC(=O)CNC(=O)CCCN=C(N)N	6.77
Cc1cccc2[nH]c(-c3cccc(-c4cccc(NC(=O)c5cnn6cccnc56)c4)c3)nc12	6.17
O=C(Nc1ccc2c(c1)CCN(C1CCC1)CC2)c1ccc(-c2cn3ccccc3n2)cc1	6.06
CCc1cn(CCS(C)(=O)=O)c2ccc(C(=O)N[C@@H](Cc3ccccc3)[C@H](O)CNC(C)(C)CCCC(C)C)cc12	6.06
O=C(Nc1cccc(-c2nn3ccccc3c2-c2ccnc(Nc3ccccc3)n2)c1)c1cc(F)ccc1F	6.02
c1ccc2c(c1)CN(Cc1cc3ccccc3[nH]1)CC1(CCN(Cc3c[nH]c4cnccc34)CC1)O2	6.51
CCOC(=O)C1=C(C)N=c2sc(=Cc3ccccc3O)c(=O)n2C1c1ccc(OC)c2ccccc12 (centres undefined)	5.90
